Experimental data as given in patent publication US8993007B2, “Preparation used for anti-tachyarrhythmia and its preparation method” (Heshengyuan of Chinese Medicine Research & Development …, priority 2012, dated 2015).
Several values for one entry are separate records, joined by “and”; a condition that tells them apart may be missing. Equal values may be shown once.

How the values were obtained:
CD mice = assay: CaCl2-induced arrhythmia, efficacy screening test; assay type: in vivo; conditions: CaCl2 tail vein 45 min after duodenal administration, amiodarone 78 mg/kg, NO.1 18.2, NO.2 157.6, NO.3 9.1, NO.4 462, NO.5 139, NO.6 1.16 mg/kg, NO.7 1.3 g/kg; for Duration (of arrhythmia), single animals: animals 1-10; for Duration (of arrhythmia), Mean: mean of 10 animals
Description: 90 CD mice, male, weighing 28-30 g, Beijing Vital River Laboratory Animal Technology Co., license number Sea (Beijing) 2006-0009. […] Before administration each drug was prepared to the desired concentration with physiological saline, duodenal route of administration, the dose of 10 mL/kg. […] Observed ECG whether induced arrhythmia, recorded the duration of ventricular arrhythmia; and the results were statistically analyzed.

connexin 43 [1] = assay: Western Blot test of connexin 43 in MI areas; assay type: in vivo, rats; conditions: Metoprolol, Shengsong Yangxin capsule, intragastric 7 days
Description: The rats were fixed the on their back on board and chloral hydrate (3.5%, […]) intraperitoneally administered. Between the rib 4 and 5 on the left side, an open was cut into pleural cavity and the pericardium was torn open, then the heart was extruded by light pressure to the thorax. Two mm beneath left auricle, a ligation was done on left anterior descending artery with surgical suture (USP 0) and the heart was put back to the thorax. The cut open was closed and stitched. Penicillin (up to 80,000 unit) was used for the incision to protect again infection.
Eighty-four rats' models were randomly assigned to 6 groups, 14 for each. They were the model group, the Metoprolol group, the Shengsong Yangxin capsule group, the large-dose extract group, the moderate-dose extract group, the small-dose extract group. Two more groups added were the control group of 13 rats and sham operation group of 13 rats. Some rats were dead the next day before intragastrical administration: 1 in the sham operation group, model group, Metoprolol group, Shengsong Yangxin capsule group, large-dose extract group and moderate-dose extract group respectively and 2 in the small-dose extract group.
1.2.3 Medicines Doses and Preparation. See Section 1.2.3 in the Experiment Example 1. […]

Ca^2+-ATPase = assay: Ca2+-ATPase concentration in cardiac tissue homogenate of MI rats (assay kit); assay type: in vivo; conditions: Metoprolol, Shengsong Yangxin capsule (doses per b188: 2.25 mg/kg, 0.432 g/kg), intragastric 7 days
Description: (§1) The rats were fixed on their back on board and chloral hydrate (10 mg/kg) intraperitoneally administered. Between the rib 4 and 5 on the left side, an open was cut into pleural cavity and the pericardium was torn open, then the heart was extruded by light pressure to the thorax. Two mm beneath the left auricle, a ligation was done on left anterior descending artery with surgical suture (USP 0) and the heart was put back to the thorax. The cut open was closed and stitched. Penicillin (up to 80,000 unit) was used for the incision to protect again infection.
(§2) Forty-two rats models were randomly assigned to 6 groups, 7 for each. They were the model group, the Metoprolol group, the Shengsong Yangxin capsule group, the large-dose extract group, the moderate-dose extract group, the small-dose extract group. Added were a control group of 6 rats and sham operation group of 6 rats. Totally there were 8 groups.
(§3) 1.2.3 Medicines Doses and Preparation. See Section 1.2.3 in the Experiment Example 1.
(§4) Starting from the next day after model establishment, the medicines were all administered intragastrically to the relevant groups accordingly, while the model group and sham operation group were given normal saline. The treatment course lasted for 7 days. […]

[2] = tested on: phospho-connexin 43 (ser 368); assay: Immunohistochemical expression of phospho-connexin 43 in left ventricle; assay type: in vivo, rats; conditions: immunohistochemistry; Metoprolol, Shengsong Yangxin capsule; intragastric 7 days
Description: (§5) Two primary antibodies were used in immunohistochemical test. The connexin 43 rabbit ploy-colonal antibody was supplied by CST, USA, Batch No. 08/2011 and phospho-connexin 43 (ser 368) rabbit ploy-colonal antibody was supplied by Santa Cruz, USA, Batch no. G2011. SP 2-step reagent kit for secondary antibody was supplied by Beijing Zhongshan Goldenspace Biotechnology Co. Ltd., Batch no. K116812C. Anhydrous ethyl alcohol was supplied by Beijing Chemical Works, 2500 ml/bottle, Batch no. 20110808.95% ethanol was supplied by Beijing Chemical Works, 2500 ml/bottle, Batch no. 20110808. Formalin solution was supplied by Xilong Chemical Corporation, 500 ml/bottle, Batch no. 1110082. Xylene solution was supplied by Beijing Chemical Works, 500 ml/bottle, Batch no. 20110808. Paraffin section (54-56° C.) was supplied by Beijing Beihuakangtai Reagents Co. Ltd., Batch no. 20110428. DAB reagent kit was supplied by Beijing ComWin Biotech Co. Ltd., Batch no. 03911H. Polylysine, strength 25 mg, was supplied by Shanghai Sigma-aldrich Trading Co. Ltd., Batch no. P1399. Microscopic cover glass (24×24 mm) and slide glass (model 7105) were supplied by Beijing Chuanganghuaxin Experimental Instrument Co. Ltd. Stainless steel pressure port, microwave oven, thermostatic waterbath, immunohistochemistry kit, antigen retrieval kit, and microscope. […]

connexin 43 [3] = assay: Immunohistochemical expression of connexin 43 in left ventricle; assay type: in vivo, rats; conditions: immunohistochemistry; Metoprolol, Shengsong Yangxin capsule; intragastric 7 days
Description: as §5

Wistar male rats = assay: MI areas after ligation of left anterior descending artery; assay type: in vivo; conditions: Metoprolol 2.25 mg/kg, Shengsong Yangxin capsule 0.432 g/kg; intragastric 7 days
Description: The rats were fixed on their back on board and chloral hydrate (10 mg/kg) intraperitoneally administered. Between the rib 4 and 5 on the left side, an open was cut into pleural cavity and the pericardium was torn open, then the heart was extruded by light pressure to the thorax. Two mm beneath left auricle, a ligation was done on left anterior descending artery with surgical suture (USP 0) and the heart was put back to the thorax. The cut open was closed and stitched. Penicillin (up to 80,000 unit) was used for the incision to protect again infection.
Sixty-six rats models were randomly assigned to 6 groups, 11 for each. They were the model group, the Metoprolol group, the Shengsong Yangxin capsule group, the large-dose extract group, the moderate-dose extract group and the small-dose extract group.
1) The Metoprolol group. Due to the administration of β receptor inhibitor after myocardial infarction (MI), Metoprolol was administered initially at small dose of 12.5 mg, bid, that is, the dosage was 25×0.018×5=2.25 mg/kg. Metoprolol 67.5 mg was accurately weighed and evenly dissolved with 300 ml normal saline (0.9%). […]
The hearts of the rats were harvested 2 hours after the last treatments were administered and the residues of blood in the heart chambers were washed with normal saline. […] Armed with the MPIDS-500, two technicians measured the MI areas on both sides of the slices. […]

Na^+—K^+-ATPase = assay: Na+-K+-ATPase concentration in cardiac tissue homogenate of MI rats (assay kit); assay type: in vivo; conditions: Metoprolol, Shengsong Yangxin capsule (doses per b188: 2.25 mg/kg, 0.432 g/kg), intragastric 7 days
Description: as §1, §2, §3, §4

| Compound | Duration (of arrhythmia), single animals (CD mice) | Duration (of arrhythmia), Mean (CD mice) | Gray degree of Connexin 43 (connexin 43 [1]) | The concentrations of Ca^2+-ATPase (Ca^2+-ATPase) | IOD values of phospho-connexin 43 [2] | expression Area of phospho-connexin 43 [2] | IOD of connexin 43 (connexin 43 [3]) | expression Area of connexin 43 (connexin 43 [3]) | MI area/total area of ventricular chamber (%) (Wistar male rats) | Concentrations of Na^+-k^+-ATPase (Na^+—K^+-ATPase) |
| --- | --- | --- | --- | --- | --- | --- | --- | --- | --- | --- |
| COc1cc2c(cc1OC)[C@@H]1Cc3ccc(OC)c(OC)c3CN1CC2 [Sample6, Tetrahydropalmatine] | 70 s (2×) and 79 s (2×) and 100 s and 47 s and 181 s and 104 s and 130 s and 80 s | 94.0 s | – | – | – | – | – | – | – | – |
| CCCCc1oc2ccccc2c1C(=O)c1cc(I)c(OCCN(CC)CC)c(I)c1 [amiodarone] | 60 s and 106 s and 76 s and 53 s and 104 s and 99 s and 0 s and 86 s and 88 s and 120 s | 79.2 s | – | – | – | – | – | – | – | – |
| COCCc1ccc(OCC(O)CNC(C)C)cc1 (stereo not drawn) [Metoprolol] | – | – | 0.5443 ± 0.1523**ΔΔ | 17.5339 ± 0.2439**ΔΔ U/ml | 2686.5321 ± 1725**ΔΔ | 13283.8000 ± 8070**ΔΔ | 4535.0243 ± 1743**ΔΔ | 17723.1800 ± 6672**ΔΔ | 19.0847 ± 2.819 % | 10.1177 ± 0.167**ΔΔ U/ml |
